Results reported in US20220372448A1, “CELL LINE AND PRODUCING METHOD THEREOF” (University of Yamanashi, priority 2021, published 2022).

System: replicon replication in VeroE6/Rep #3 cells
Assay type: cell-based, SARS-CoV-2
Details: 72 hours

CC(C)C(=O)OC[C@H]1O[C@@H](n2ccc(NO)nc2=O)[C@H](O)[C@@H]1O [EIDD-2801, molnupiravir]
effectiveness rate = (Replicon replication level)/(Cell survival rate): about 0.2 | luciferase activity (index of the replicon replication level) compared with DMSO negative control: significantly decreased
